DBAASP
Values after ≈ are worked out from the molar mass of the structure shown.

Assays:
Assay in all cases: ≥ marks a high value that may be exact or a test limit, other limits are often not marked, values filed in µg/mL are converted to µM
Bacillus cereus = system: Bacillus cereus
Escherichia coli = system: Escherichia coli
Staphylococcus aureus = system: Staphylococcus aureus

Row | Compound | MIC (Bacillus cereus) [µM] | MIC (Escherichia coli) [µM] | MIC (Staphylococcus aureus) [µM]
1 | CC(C)C[C@H](NC(=O)[C@H](CCCCN)NC(=O)[C@H](Cc1ccccc1)NC(=O)[C@@H](NC(=O)[C@H](CCCCN)NC(=O)CNC(=O)[C@H](CC(C)C)NC(=O)[C@@H](N)Cc1ccccc1)C(C)C)C(=O)N[C@@H](C)C(=O)N[C@@H](CO)C(=O)N[C@@H](CCCCN)C(=O)N[C@H](C(=O)N[C@@H](Cc1ccccc1)C(=O)N1CCC[C@H]1C(=O)N[C@@H](C)C(=O)N[C@H](C(=O)N[C@@H](Cc1ccccc1)C(=O)NCC(=O)N[C@@H](CCCCN)C(=O)N[C@H](C(=O)O)C(C)C)C(C)C)C(C)C [FLGKVFKLASKVFPAVFGKV] | 7.33 (≈ 16 µg/mL) | 7.33 (≈ 16 µg/mL) | 14.7 (≈ 32 µg/mL)
2 | CC(C)C[C@H](NC(=O)[C@H](CCCCN)NC(=O)[C@H](Cc1ccccc1)NC(=O)[C@@H](NC(=O)[C@H](CO)NC(=O)CNC(=O)[C@H](CC(C)C)NC(=O)[C@@H](N)Cc1ccccc1)C(C)C)C(=O)N[C@@H](C)C(=O)N[C@@H](CO)C(=O)N[C@@H](CCCCN)C(=O)N[C@H](C(=O)N[C@@H](Cc1ccccc1)C(=O)N1CCC[C@H]1C(=O)N[C@@H](C)C(=O)N[C@H](C(=O)N[C@@H](Cc1ccccc1)C(=O)NCC(=O)N[C@@H](CCCCN)C(=O)N[C@H](C(=O)O)C(C)C)C(C)C)C(C)C [FLGSVFKLASKVFPAVFGKV] | 14.9 (≈ 32 µg/mL) | 29.9 (≈ 64 µg/mL) | 29.9 (≈ 64 µg/mL)
3 | CC(C)C[C@H](NC(=O)[C@@H](N)Cc1ccccc1)C(=O)NCC(=O)N[C@H](C(=O)N[C@H](C(=O)N[C@@H](Cc1ccccc1)C(=O)N[C@@H](CCCCN)C(=O)N[C@@H](CCCCN)C(=O)N[C@@H](C)C(=O)N[C@@H](CO)C(=O)N[C@@H](CCCCN)C(=O)N[C@H](C(=O)N[C@@H](Cc1ccccc1)C(=O)NCC(=O)N[C@@H](C)C(=O)N[C@H](C(=O)N[C@@H](Cc1ccccc1)C(=O)NCC(=O)N[C@@H](CCCCN)C(=O)N[C@H](C(=O)O)C(C)C)C(C)C)C(C)C)C(C)C)C(C)C [FLGVVFKKASKVFGAVFGKV] | ≥ 60.1 | 30.1 (≈ 64 µg/mL) | > 120
4 | CC(C)C[C@H](NC(=O)[C@H](CCCCN)NC(=O)[C@H](Cc1ccccc1)NC(=O)[C@@H](NC(=O)[C@@H](NC(=O)CNC(=O)[C@H](CC(C)C)NC(=O)[C@@H](N)Cc1ccccc1)C(C)C)C(C)C)C(=O)N[C@@H](C)C(=O)N[C@@H](CO)C(=O)N[C@@H](CCCCN)C(=O)N[C@H](C(=O)N[C@@H](Cc1ccccc1)C(=O)NCC(=O)N[C@@H](CCCCN)C(=O)N[C@H](C(=O)N[C@@H](Cc1ccccc1)C(=O)NCC(=O)N[C@@H](CCCCN)C(=O)N[C@H](C(=O)O)C(C)C)C(C)C)C(C)C [FLGVVFKLASKVFGKVFGKV] | 3.69 (≈ 8 µg/mL) | 29.5 (≈ 64 µg/mL) | 3.69 (≈ 8 µg/mL)
5 | CC(C)C[C@H](NC(=O)[C@@H](N)Cc1ccccc1)C(=O)NCC(=O)N[C@H](C(=O)N[C@H](C(=O)N[C@@H](Cc1ccccc1)C(=O)N[C@@H](CCCCN)C(=O)N[C@@H](CO)C(=O)N[C@@H](C)C(=O)N[C@@H](CO)C(=O)N[C@@H](CCCCN)C(=O)N[C@H](C(=O)N[C@@H](Cc1ccccc1)C(=O)N1CCC[C@H]1C(=O)N[C@@H](C)C(=O)N[C@H](C(=O)N[C@@H](Cc1ccccc1)C(=O)NCC(=O)N[C@@H](CCCCN)C(=O)N[C@H](C(=O)O)C(C)C)C(C)C)C(C)C)C(C)C)C(C)C [FLGVVFKSASKVFPAVFGKV] | ≥ 120 | > 120 | > 120
6 | CC[C@H](C)[C@H](NC(=O)[C@H](CCCCN)NC(=O)[C@H](Cc1ccccc1)NC(=O)[C@@H](NC(=O)[C@@H](NC(=O)[C@@H]1CCCN1C(=O)[C@@H](N)CC(C)C)C(C)C)C(C)C)C(=O)N[C@@H](C)C(=O)N[C@@H](CO)C(=O)N[C@@H](CCCCN)C(=O)N[C@H](C(=O)N[C@H](C(=O)N1CCC[C@H]1C(=O)N[C@@H](CO)C(=O)N[C@H](C(=O)N[C@H](C(=O)N[C@@H](CO)C(=O)N[C@@H](CCCCN)C(=O)N[C@H](C(=O)N[C@H](C(=O)O)[C@@H](C)O)[C@@H](C)CC)[C@@H](C)CC)C(C)C)C(C)C)C(C)C [LPVVFKIASKVVPSVISKIT] | ≥ 120 | > 120 | –
7 | CC[C@H](C)[C@H](NC(=O)[C@H](CO)NC(=O)[C@H](CC(C)C)NC(=O)CNC(=O)[C@@H](NC(=O)[C@@H](NC(=O)[C@H](CCCCN)NC(=O)[C@@H]1CCCN1)C(C)C)C(C)C)C(=O)N[C@H](C(=O)N[C@H](C(=O)N[C@H](C(=O)N[C@@H](CCCCN)C(=O)N[C@@H](C)C(=O)N[C@@H](CCCCN)C(=O)N[C@H](C(=O)N[C@@H](CO)C(=O)N[C@@H](CO)C(=O)N[C@@H](C)C(=O)N[C@@H](CC(C)C)C(=O)NCC(=O)O)C(C)C)C(C)C)C(C)C)C(C)C [PKVVGLSIVVVKAKVSSALG] | ≥ 131 | > 131 | –

Other lines, results leading:

Row | MIC (Bacillus cereus) [µM] | MIC (Escherichia coli) [µM] | MIC (Staphylococcus aureus) [µM] | Compound
8 | ≥ 119 | 119 (≈ 256 µg/mL) | > 119 | CC(C)C[C@H](NC(=O)[C@@H](N)Cc1ccccc1)C(=O)NCC(=O)N[C@@H](CCCCN)C(=O)N[C@H](C(=O)N[C@@H](Cc1ccccc1)C(=O)N[C@@H](CCCCN)C(=O)N[C@@H](CCCCN)C(=O)N[C@@H](C)C(=O)N[C@@H](CO)C(=O)N[C@@H](CCCCN)C(=O)N[C@H](C(=O)N[C@H](C(=O)N1CCC[C@H]1C(=O)N[C@@H](C)C(=O)N[C@H](C(=O)N[C@@H](Cc1ccccc1)C(=O)NCC(=O)N[C@@H](CCCCN)C(=O)N[C@H](C(=O)O)C(C)C)C(C)C)C(C)C)C(C)C)C(C)C [FLGKVFKKASKVVPAVFGKV]
9 | ≥ 123 | > 123 | > 123 | CC(C)C[C@H](NC(=O)[C@@H](N)Cc1ccccc1)C(=O)NCC(=O)N[C@@H](CCCCN)C(=O)N[C@H](C(=O)N[C@H](C(=O)N[C@@H](CCCCN)C(=O)NCC(=O)N[C@@H](C)C(=O)N[C@@H](CO)C(=O)N[C@@H](CCCCN)C(=O)N[C@H](C(=O)N[C@@H](Cc1ccccc1)C(=O)N1CCC[C@H]1C(=O)N[C@@H](C)C(=O)N[C@H](C(=O)N[C@@H](Cc1ccccc1)C(=O)NCC(=O)N[C@@H](CCCCN)C(=O)N[C@H](C(=O)O)C(C)C)C(C)C)C(C)C)C(C)C)C(C)C [FLGKVVKGASKVFPAVFGKV]
10 | ≥ 122 | > 122 | – | CC[C@H](C)[C@H](NC(=O)[C@H](Cc1ccccc1)NC(=O)[C@H](CCCCN)NC(=O)[C@H](C)NC(=O)[C@@H](NC(=O)[C@H](CO)NC(=O)[C@H](CCCCN)NC(=O)[C@@H](N)CCSC)[C@@H](C)CC)C(=O)N[C@@H](C)C(=O)N[C@@H](CCCCN)C(=O)N[C@H](C(=O)N[C@H](C(=O)N[C@@H](C)C(=O)N[C@@H](CCCCN)C(=O)N[C@@H](CCC(N)=O)C(=O)NCC(=O)N[C@@H](C)C(=O)N[C@@H](CCCCN)C(=O)N[C@@H](CCC(N)=O)C(=O)NCC(=O)O)C(C)C)[C@@H](C)O [MKSIAKFIAKTVAKQGAKQG]
11 | ≥ 130 | > 130 | – | CC[C@H](C)[C@H](NC(=O)[C@H](CCCCN)NC(=O)[C@@H](NC(=O)[C@H](C)NC(=O)[C@@H](NC(=O)[C@H](CC(C)C)NC(=O)[C@H](CCCCN)NC(=O)[C@H](C)NC(=O)[C@@H](NC(=O)[C@@H](NC(=O)CNC(=O)[C@@H](NC(=O)[C@H](CC(C)C)NC(=O)[C@@H](N)[C@@H](C)O)C(C)C)C(C)C)C(C)C)C(C)C)[C@@H](C)O)C(=O)NCC(=O)N[C@@H](CO)C(=O)N[C@@H](CO)C(=O)N1CCC[C@H]1C(=O)N[C@@H](CCCN=C(N)N)C(=O)N[C@@H](C)C(=O)O [TLVGVVAKLVATKIGSSPRA]
